The values below come from patent US10947234B2, “PRMT5 inhibitors” (Merck Sharp & Dohme Corp., priority 2017, dated 2021).

The target in test [1] is Full-length (FL)-PRMT5-MEP50 enzyme complex (Homo sapiens (Human), UniProt O14744). Briefly: PRMT5-MEP50 Enzyme Methylation Assay. The test is classed as biochemical. Particulars: biotinylated H4R3(Me1) peptide, 15 μM SAM, top compound concentration 100000 nM. On the procedure:
PRMT5-MEP50 Enzyme Methylation Assay
PRMT5/MEP50 biochemical assay is a direct measurement of the methylation activity of the enzyme complex on a short peptide substrate derived from the N-terminus of H4 histone. Methylation experiment is performed with recombinant protein. The assessment of inhibitory effect (IC50) of small molecules is measured by the effectiveness of the compounds to inhibit this reaction.
To each well of a white ProxiPlus 384 well-plate, 100 nL of compound (1% DMSO in final assay volume of 10 μL) was dispensed, followed by the addition of 8 μL of 1× assay buffer (50 mM Bicine pH 8.0, 1 mM DTT, 0.004% Tween20, 0.01% BSA) containing 0.5 nM of Full-length (FL)-PRMT5-MEP50 enzyme complex (recombinant proteins from baculovirus-transfected Sf21 cells: FL-PRMT5; MW=[…] and FL-MEP50; MW=38614). Plates were sealed and placed in a 37° C. humidified chamber for 30 minutes pre-incubation with compounds. Subsequently, each reaction was initiated by the addition of 2 μL 1× assay buffer containing 75 nM biotinylated H4R3(Me1) peptide, and 15 μM S-(5′-Adenosyl)-L-Methionine Chloride (SAM). The final reaction in each well of 10 μL consists of 0.5 nM PRMT5-MEP50, 75 nM biotinylated-peptide, and 15 μM. Methylation reactions were allowed to proceed for 150 minutes in a sealed plate at 37° C. Reactions were immediately quenched by the addition of 1 μL of 10% formic acid. Plates were then frozen and shipped to SAMDI™ Tech Inc. to determine the percent conversion from […]. IC50 values were determined by 7 parameters biphasic fit model plotting the percent product conversion vs. (Log10) compound concentrations.

Another test deals with PRMT5 (Homo sapiens (Human), UniProt O14744). Briefly: PRMT5 Cell Target Engagement (TE) Assay. Particulars: MCF-7 cells, 3 days treatment, nuclear SDMA by high content imaging; top compound concentration 10000 nM. The test is classed as cell-based. An excerpt:
PRMT5 Cell Target Engagement (TE) Assay
The PRMT5 TE assay is a biomarker assay for identifying compounds that inhibit symmetric dimethylation of arginine (SDMA) of PRMT5 substrates. This assay detects symmetrically dimethylated nuclear proteins using high content imaging technology. Detection of the expression of symmetrically dimethylated nucleo proteins is through a mixture of primary rabbit monoclonal antibodies to SDMA (CST 13222), which in turn recognized by an Alexafluor 488 dye-conjugated anti-rabbit IgG secondary antibody. The IN Cell Analyzer 2200 measures nuclear Alexafluor 488 fluorescent dye intensity that is directly related to the level of expression of symmetrically dimethylated nuclear proteins at the single cell level. Nuclear AF488 dye intensities are compared to the mean value for DMSO treated cells […] to report percent of inhibition for each compound-treated well.
Each well of a BD falcon collagen coated black/clear bottom 384-well plate was seeded with 4000 MCF-7 cells and allowed to attach for 5 hours. Media from cell plate was removed at 0.5 mm above the bottom of the plate and replaced with 30 μL of fresh media containing 1.2× compounds in 0.1% DMSO. Cells were treated for 3 days in 37° C. CO2 incubator. On day 3, cells were fixed with Cytofix, permeablized with 0.4% Triton-X-100/Cytofix, and washed with D-PBS without Ca/Mg. Cells were blocked with Licor Odessey blocking reagent for one hour at room temperature, followed by incubation with anti-SDMA (1:1000) antibody at 4° C. overnight. 1° antibody was removed, followed by three washings with DPBS without Ca/Mg and 0.05% Tween20. Hoechst (5 μg/ml), Cell Mask deep stain (1:2000) and Alexa488-conjugated goat anti-rabbit IgG (2 μg/mL) was added for 1 hour at room temperature. A final washing step (three washes) was performed before sealing plate for imaging on In Cell Analyzer 2200. Images from analyzer were uploaded to Columbus (at WP) for image analysis. IC50 values were determined by 4 parameters robust fit of percent fluorescence units vs. (Log10) compound concentrations.

Setting [2] is: first IC50 of 7 parameters biphasic fit, read-out: Enzyme Methylation Assay IC50_1.
Setting [3] is: second IC50 of 7 parameters biphasic fit, read-out: Enzyme Methylation Assay IC50_2.

What is called EC50 is the midpoint of the concentration-response curve. The low end stands for higher potency in that assay, the high end for lower potency in that assay.

Like-named read-outs stand apart in the source and are kept apart here.

PRMT5, sequence (O14744 whole entry): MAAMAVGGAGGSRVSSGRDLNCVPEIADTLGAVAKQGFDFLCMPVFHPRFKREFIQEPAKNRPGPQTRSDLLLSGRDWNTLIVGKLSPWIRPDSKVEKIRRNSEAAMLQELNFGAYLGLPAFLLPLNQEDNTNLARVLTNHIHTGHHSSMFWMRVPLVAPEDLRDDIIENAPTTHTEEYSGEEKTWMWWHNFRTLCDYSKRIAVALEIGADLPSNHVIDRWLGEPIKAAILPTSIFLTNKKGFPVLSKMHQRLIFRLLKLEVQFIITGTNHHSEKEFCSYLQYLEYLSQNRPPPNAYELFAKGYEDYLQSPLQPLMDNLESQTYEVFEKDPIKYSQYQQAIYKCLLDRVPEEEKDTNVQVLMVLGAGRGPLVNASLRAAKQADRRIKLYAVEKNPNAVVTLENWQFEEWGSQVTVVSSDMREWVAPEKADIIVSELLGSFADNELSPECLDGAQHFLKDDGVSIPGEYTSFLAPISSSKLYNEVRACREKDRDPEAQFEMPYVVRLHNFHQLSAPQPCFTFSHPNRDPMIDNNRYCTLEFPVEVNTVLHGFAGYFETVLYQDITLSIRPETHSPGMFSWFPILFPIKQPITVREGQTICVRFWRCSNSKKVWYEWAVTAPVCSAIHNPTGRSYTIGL
PRMT5, sequence (Q9BQA1 whole entry partner): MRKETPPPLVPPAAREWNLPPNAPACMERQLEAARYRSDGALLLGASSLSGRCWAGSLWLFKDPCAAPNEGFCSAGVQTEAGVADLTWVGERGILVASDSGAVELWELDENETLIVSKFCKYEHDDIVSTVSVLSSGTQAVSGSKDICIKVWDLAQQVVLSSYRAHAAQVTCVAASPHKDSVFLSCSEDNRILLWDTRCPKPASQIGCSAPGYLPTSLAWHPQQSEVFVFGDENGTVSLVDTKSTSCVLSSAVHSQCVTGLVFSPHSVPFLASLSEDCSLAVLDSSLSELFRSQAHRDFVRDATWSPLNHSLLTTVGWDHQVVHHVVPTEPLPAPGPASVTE
Full-length (FL)-PRMT5-MEP50 enzyme complex, sequence (O14744 whole entry): as the sequence (O14744 whole entry) above
Full-length (FL)-PRMT5-MEP50 enzyme complex, sequence (Q9BQA1 whole entry partner): as the sequence (Q9BQA1 whole entry partner) above

As to `CC[C@H]1CN(C[C@@H](O)[C@@H]2Cc3ccccc3CN2)C(=O)c2cc(Cl)ncc21` (single isomer, unassigned) [Example 1], the values for the IC50 in test [1] (setting [2]) and in test [1] (setting [3]) were 5.19 µM and at least 100 µM, respectively. Further, the EC50 at PRMT5 was at least 10 µM.

Consider `CC[C@H]1CN(C[C@@H](O)[C@@H]2Cc3ccccc3CN2)C(=O)c2cc(Cl)ncc21` (single isomer, unassigned) [Example 2], for which the IC50 was 3.83 µM in test [1] (setting [2]) and at least 100 µM in test [1] (setting [3]). The molecule further registered an EC50 on PRMT5 of at least 10 µM.

Consider `CC[C@H]1CN(C[C@@H](O)[C@@H]2Cc3ccccc3CN2)C(=O)c2cc(Cl)ncc21` (single isomer, unassigned) [Example 3], for which the IC50 in test [1] (setting [2]) was 28.3 µM; in test [1] (setting [3]), at least 100 µM. The same molecule had an EC50 on PRMT5 of at least 10 µM.

As to `CC[C@H]1CN(C[C@@H](O)[C@@H]2Cc3ccccc3CN2)C(=O)c2cc(Cl)ncc21` (single isomer, unassigned) [Example 4], the IC50 was 42.9 µM in test [1] (setting [2]) and at least 100 µM in test [1] (setting [3]). At PRMT5, the EC50 was at least 10 µM.

For the molecule `CC[C@H]1CN(C[C@@H](O)[C@@H]2Cc3ccccc3CN2)C(=O)c2cc(NC3CCN(C(C)=O)CC3)ncc21` (single isomer, unassigned) [Example 7], the IC50 came to 0.00715 µM in test [1] (setting [2]) and 4.99 µM in test [1] (setting [3]). At PRMT5, a half-maximal response (EC50) required 0.682 µM.

On to `CC[C@H]1CN(C[C@@H](O)[C@@H]2Cc3ccccc3CN2)C(=O)c2cc(NC3CCN(C(C)=O)CC3)ncc21` (single isomer, unassigned) [Example 8], for which the IC50 in test [1] (setting [2]) worked out at 0.0968 µM; in test [1] (setting [3]), 29.1 µM. The molecule further came in with an EC50 on PRMT5 of 3.24 µM.

As for `CC[C@H]1CN(C[C@@H](O)[C@@H]2Cc3ccccc3CN2)C(=O)c2cc(NC3CCN(C(C)=O)CC3)ncc21` (single isomer, unassigned) [Example 9], the figures for the IC50 in test [1] (setting [2]) and in test [1] (setting [3]) were 0.00108 µM and 1.18 µM, respectively. The same molecule yielded an EC50 at PRMT5 of 0.103 µM.

As to `CC[C@H]1CN(C[C@@H](O)[C@@H]2Cc3ccccc3CN2)C(=O)c2cc(NC3CCN(C(C)=O)CC3)ncc21` (single isomer, unassigned) [Example 10], the figures for the IC50 in test [1] (setting [2]) and in test [1] (setting [3]) were 0.272 µM and 64.5 µM, respectively. This molecule also yielded an EC50 on PRMT5 of at least 10 µM.

As for `CC(=O)N1CCC(Nc2cc3c(cn2)C(C)(C)CN(C[C@@H](O)[C@@H]2Cc4ccccc4CN2)C3=O)CC1` (single isomer, unassigned) [Example 11], the IC50 was determined as 0.0569 µM in test [1] (setting [2]) and 9.23 µM in test [1] (setting [3]). This molecule also showed an EC50 on PRMT5 of 3.89 µM.

With `CC(=O)N1CCC(Nc2cc3c(cn2)C(C)(C)CN(C[C@@H](O)[C@@H]2Cc4ccccc4CN2)C3=O)CC1` (single isomer, unassigned) [Example 12], the figures for the IC50 in test [1] (setting [2]) and in test [1] (setting [3]) were 0.00153 µM and 0.631 µM, respectively. At PRMT5, this molecule gave an EC50 of 0.102 µM.
